Reference: publication PMC9538480, “Rutin bioconjugates as potential nutraceutical prodrugs: An in vitro and in ovo toxicological screening” (Frontiers in Pharmacology, 2022)

Key:
H9c2(2-1) cells [1] = assay type: cell-based, rat; conditions: 100 µM, 24 h, Hoechst 33342
Method: (§1) The potential toxicity of 100 μM RUT, OA, LA, RUT-O, and RUT-L at nuclear level was tested by applying the Hoechst 33342 staining assay protocol according to the manufacturer’s (Thermo Fisher Scientific, Inc., Waltham, MA, United States) recommendations. In brief, H9c2(2-1), HepaRG, and HaCaT cells were seeded in 12-well plates (10^5 cells/1.5 ml/well) and treated with the test compounds for 24 h. After the stimulation period, the media was removed, and the staining solution diluted 1:2000 in PBS was added (500 µl/well). The plates were incubated for 10 min at room temperature, protected from light. Finally, the staining solution was washed with PBS and the pictures were taken using Cytation 1 (BioTek Instruments Inc., Winooski, VT, United States) and analyzed by the means of Gen5™ Microplate Data Collection and Analysis Software (BioTek Instruments Inc., Winooski, VT, United States). Staurosporine (STP) 5 µM was selected as positive control for apoptosis.

[2] = tested on: H9c2(2-1), HaCaT, and HepaRG cells; assay type: cell-based; conditions: 100 µM, 24 h
Method: To verify the impact of PCs (RUT, OA and LA) and REs (RUT-O and RUT-L) on the morphology and confluence of H9c2(2-1), HaCaT, and HepaRG cells, a microscopic examination was performed. The cells were observed under bright field illumination and photographed at the end of the 24 h treatment period using Cytation 1 (BioTek Instruments Inc., Winooski, VT, United States). The photographs were processed using the Gen5™ Microplate Data Collection and Analysis Software (BioTek Instruments Inc., Winooski, VT, United States).

chorioallantoic membrane = assay: HET-CAM in ovo irritant potential; assay type: in vivo, Gallus domesticus; conditions: 5 min after application
Method: To perform a toxicological screening and to verify the irritant potential of the RUT-O and RUT-L were used chicken eggs (Gallus domesticus). Specifically, the eggs were prepared as follows: 1) after being washed and disinfected with 70% ethanol (v/v), the eggs were placed in an incubator in a horizontal posture; 2) on the fourth day of incubation, a small hole was made through which a volume of approximately 7–8 ml of albumen was extracted in order to facilitate the detachment of the chorioallantoic membrane from the inner shell of the egg; 3) on the fifth day of incubation, a window was cut in the upper part of the egg to allow the visualization of the blood vessels, which was then covered with adhesive tape and the eggs were placed in the incubator until the day of the beginning of the experiment. Using the Hen’s Egg Test—Chorioallantoic Membrane (HET-CAM) assay, the potential in ovo toxicity of the samples was evaluated. […] [Kis et al., 2022]). […] In order to observe any vascular effects, a stereomicroscope (Discovery 8 Stereomicroscope Zeiss, Göttingen, and Germany) was used, and images were taken with a Zeiss Axio CAM 105 color camera before and 5 min after the application of the samples. The same experimental protocol was applied for the parent compounds—RUT, OA, and LA.

HepaRG cells = assay type: cell-based, human; conditions: 100 µM, 24 h, Hoechst 33342
Method: as §1

HaCaT cells = assay type: cell-based, human; conditions: 100 µM, 24 h, Hoechst 33342
Method: as §1

H9c2(2-1) cells [3] = assay: in vitro; assay type: cell-based, rat; conditions: H9c2(2-1), lowest concentrations (1 and 10 µM), 24 h
Method: (§2) To evaluate the in vitro effect of rutin esters (REs) on cells’ viability, the MTT technique was applied following a 24 h treatment of H9c2(2-1), HepaRG, and HaCaT cells with RUT-O and RUT-L (1, 10, 25, 50, and 100 µM). The parent compounds (PCs)—RUT, OA, and LA were also tested. DMSO was used as solvent for all test compounds (RUT, OA, LA, RUT-O, and RUT-L). The impact of DMSO at tested concentrations (1, 10, 25, 50, and 100 µM) was also assessed in vitro. At the end of the treatment, fresh media (100 µl) and the MTT reagent (10 µl) were added in each well, and the plates were incubated for 3 h at 37°C. The final steps were as follows: addition of the solubilization solution (100 µl/well), incubation of the plates at room temperature for 30 min, protected from light, and absorbance measurement at two wavelengths (570 and 630 nm) using Cytation 5 (BioTek Instruments Inc., Winooski, VT, United States). The results were expressed as percentage (%) of viable cells normalized to control cells (unstimulated cells).

in vitro [4] = assay type: cell-based, rat; conditions: rat
Method: as §2

[5] = tested on: trophoblast-like Swan71 cells; design: method as in Shrestha et al., 2019; conditions: 24 h of treatment, ref Shrestha et al., 2019; cited from earlier work
in vitro [6] = assay type: cell-based, human; conditions: human
Method: as §2

HUVEC endothelial cells = conditions: ref Lu et al., 2010; cited from earlier work
HaCaT = tested on: HaCaT; design: method as in Carullo et al., 2019; conditions: 1 μM; ref Carullo et al., 2019; cited from earlier work

Row | nuclear morphology changes (H9c2(2-1) cells [1]) | impact on cells' adherence or confluency ([2]; compared to control cells) | nuclear morphology changes (HepaRG cells) | nuclear morphology changes (HaCaT cells) | Compound | round cells floating in the culture medium ([2]; bright field) | vascular irritation signs (hemorrhage, lysis, coagulation) in words (chorioallantoic membrane) | effect on cell viability (H9c2(2-1) cells [3]) | viability at 24 h, 50 µM (in vitro [4]) [%] | viability at 24 h, 100 µM (in vitro [4]) [%] | decrease in the viability compared to vehicle control [5] [%] | viability at 24 h, 100 µM (in vitro [6]) [%] | concentrations suppressing HUVEC endothelial cells growth (HUVEC endothelial cells) | stimulation of HaCaT wound healing (HaCaT)
1 | no significant nuclear alterations | no negative impact | no significant nuclear alterations | no significant nuclear alterations | CCCCC/C=C\C/C=C\CCCCCCCC(=O)O [LA, linoleic acid] | several round cells floating in the culture medium | No signs of vascular irritation | stimulatory effect | 87.2 | 84.2 | 10 | 86.9 | higher than 300 µM | –
2 | – | – | – | – | CCCCCCCC/C=C\CCCCCCCC(=O)Oc1c(-c2ccc(O)c(O)c2)oc2cc(O)cc(O)c2c1=O [Quercetin-3-oleate] | – | – | – | – | – | – | – | – | up to 51%
